Experiments:
[1] = Metabolite profiling and identification in plasma, urine and feces (LC/RAM/MS); format: in vivo, human; set-up: key to Plasma %AUC (percentage of total plasma radioactivity) / Urine %Dose / Feces %Dose: +: No radioactive peaks were detected, but mass spectrometry peaks were detected; ND: not detectable; conditions: for Urine %Dose: pooled 0–72 h urine, total in urine 37.15%
Procedure: The plasma samples from six subjects were pooled individually according to the AUC method to obtain 6 plasma samples of 0–72 h ([Hop et al., 1998]). A portion of the proportionally mixed plasma sample was taken and added to a certain volume of acetonitrile (3×, v/v) for extraction, vortexed for 1 min, shaken for 10 min and then stored in a refrigerator at 4°C for 30 min, the mixture was removed and vortexed for 2 min and then centrifuged for 10 min at 10,000×g and 4°C. The residue from the extraction was firstly ultrasonically suspended using 1 mL of ultrapure water and then extracted using methanol (2×, v/v) and repeated twice. The organic solvent extracts were combined, blown dry with nitrogen and reconstituted with acetonitrile: ultrapure water (1:1), the reconstituted solution was centrifuged at 4°C and 10,000×g for 10 min, and the supernatant was used for radio-metabolite profiling.
The radioactivity in the organic solvent extract and the reconstitution solution was determined by LSC. The solid residue after extraction was dissolved by heating with 1N KOH solution and added to the scintillation solution to determine its radioactivity. All the final data were used to examine the recovery of radioactivity during plasma extraction.
The urine samples from the six subjects were mixed in the same volume percentage to obtain six 0–72 h urine samples. A portion of the proportionally mixed urine sample was centrifuged for 10 min at approximately 10,000×g and 4°C. Two samples were taken before and after centrifugation, and the radioactivity of the samples was determined by LSC, and the data obtained were used to calculate the recovery of radioactivity during the centrifugation process. A portion of the supernatant after centrifugation was used directly for radio-metabolite profiling.
The fecal samples from the six subjects were mixed with the same weight percentage to obtain 6 fecal homogenate samples of 0–168 h. A portion of the proportionally mixed fecal homogenate samples was taken and extracted by adding a volume of acetonitrile (3×, v/v), vortexed for 5 min at room temperature, sonicated for 5 min and then centrifuged for 10 min at 10,000 × g and 4°C. The residue of the extracted material was firstly sonicated and mixed using about 1 mL of ultrapure water before extracted using methanol (2×, v/v). The process was repeated twice and the organic extracts were combined, blown dry using nitrogen and then reconstituted with dimethyl sulfoxide: acetonitrile: ultrapure water (3:2:5), the reconstituted solution was centrifuged at 10,000×g at 4°C for 10 min and the supernatant was used for radio-metabolite profiling. […] LSC was used to determine the intensity of radioactivity contained in the organic solvent extract and in the reconstituted solution. The solid residue after extraction is fully combusted by an oxidative combustor, and the [^14C]carbon dioxide produced by combustion of the sample is captured with a scintillation solution to determine its radioactivity intensity. All final data were used to examine the extraction and recovery of radioactivity from fecal homogenate samples.
A high performance liquid chromatograph coupled with an online isotope detector and mass spectrometry (LC/RAM/MS) was used for the identification of radioactive metabolite profiles. The HPLC method consisted of an HPLC system (Shimadzu UFLC-20A-Lite), a chromatographic column (ACE Excel 3 C18, 150 × 4.6 mm id), mobile phase A (0.4% aqueous formic acid, pH = 3.2 adjusted with ammonia) and mobile phase B (acetonitrile) at a flow rate of 0.7 mL/min. The gradient was 0% B for the 0–5 min, 20% B from 15 min to 30 min, 22% B from 32 to 40 min, and 70%–100% B from 60 to 72 min. The column temperature was 28°C. […]

[2] = Total radioactivity in plasma and whole blood (LSC), pharmacokinetics and blood-to-plasma ratio; format: in vivo, human
Procedure: Six subjects were admitted to the clinical research center 1 day prior to dosing, with random urine and fecal samples collected as blank excretion controls. After fasting overnight for at least 10 h, a blank blood sample was collected after a regular breakfast (449 kcal, with ∼35% energy from fat) on Day 1. […] Scheduled collection of urine, feces, and blood samples, and safety monitoring proceeded until completion.
Venous blood samples were collected within 0.5 h prior to administration and at 0.5, 1, 1.5, 2, 3, 4, 6, 8, 12, 24, 36, 48, 72, and 96 h after administration. About 8 mL of blood was collected at each time point in the anticoagulant collection tube containing K2-EDTA. The centrifuged plasma was used for non-radioactive and radioactive pharmacokinetic and biotransformation (metabolite) analyses. In addition, about 2 mL of venous blood was collected within 0.5 h before administration and at 1, 4, 8, 12, 24, and 48 h after administration for whole blood radioactivity analysis. Additional 10 mL of venous blood for each time point was collected at 1, 4, 8, 12, 24, and 48 h after administration, and the plasma was obtained by centrifugation for biotransformation (metabolites) analysis. Urine and fecal samples were collected until 144 h (4 subjects) or 192 h (2 subjects) after administration.
Pharmacokinetic analysis was performed using Phoenix WinNonlin® software version 8.3. […] Descriptive statistics applied to parameters including maximum plasma concentration after administration (Cmax), the time to reach maximum plasma concentration after administration (Tmax), elimination rate constant (λz), area under the plasma concentration-time curve from the time 0 to the time of last quantifiable concentration (AUC0-t, obtained by the linear trapezoidal method), area under the plasma concentration-time curve from time 0 extrapolated to infinity (AUC0-∞, AUC0-∞ = AUC0-t + Ct/λ z ), half-life (t1/2, t1/2 = ln ([Lannutti et al., 2011])/λz), mean residence time (MRT, MRT = AUMC/AUC), apparent clearance (CL/F, CL/F = Dose/AUC0-∞), apparent volume of distribution based on terminal phase (Vz/F, Vz/F = Dose/(λz×AUC0-∞)).
Radioactivity was measured using an oxidative combustion apparatus and liquid scintillation counter (LSC). After the whole blood sample was vortexed thoroughly, two portions (about 0.5 g each) were weighed into the combustion boat, and after complete combustion by oxidative combustion apparatus, [^14C]carbon dioxide generated from the combustion of the samples was captured by scintillation solution and measured by liquid scintillation counter. After plasma samples were fully vortexed, one portion (approximately 0.5 g) was weighed into a scintillation vial, mixed well with the scintillation solution, and measured using a liquid scintillation counter. […]

[3] = Safety and tolerability evaluation; conditions: for serious adverse events or deaths: 6 healthy Chinese males
Procedure: The safety of the subjects was assessed by adverse events, laboratory test results, vital signs, and 12-lead electrocardiogram (ECG). AEs were recorded from the time of administration and serious adverse events (SAE) were recorded from the time that subjects signed the informed consent. Subjects with elevated aspartate aminotransferase (AST) and/or alanine aminotransferase (ALT) levels (≥3 × ULN) combined with elevated serum total bilirubin (≥2 × ULN) or clinical jaundice in the same blood sample should be recorded as a specific adverse event.

[4] = set-up: method as in Cao W. et al., 2023; conditions: 30 mg amdizalisib capsules, fed condition, Chinese healthy volunteers ref Cao W. et al., 2023; cited from earlier work
[5] = total radioactivity in plasma, mean ± SD

With `C[C@H](Nc1ncnc(N)c1C#N)c1cc2ncc(Cl)n2nc1-c1ccccc1` [Amdizalisib] the “F: %Dose in feces (Figure 4)” value [1] was 1.21%, the “P: %AUC in plasma (Figure 4)” value [1] was 51.45% and the “U: %Dose in urine (Figure 4)” value [1] was “+”. The “Plasma %AUC (percentage of total plasma radioactivity)” value ([1]; AUC-pooled 0–72 h plasma, mean of 6 subjects) was 51.45 %AUC, the “Urine %Dose” value ([1]; mean of 6 subjects) was “+” and the “Urine %Dose” value ([1]; mean of 6 subjects, listed as parent drug) was “detected only by mass spectrometry”. The “Feces %Dose” value ([1]; pooled 0–168 h feces, mean of 6 subjects, total in feces 62.08%) was 1.21 %Dose, the “%AUC in AUC-pooled plasma” value ([1]; subject 01001) was 57.45 %AUC and the “%Dose in pooled feces” value ([1]; subject 01001) was 0.77 %Dose. For the same compound, the “%AUC in AUC-pooled plasma” value ([1]; subject 01002) was 65.57 %AUC, the “%Dose in pooled feces” value ([1]; subject 01002) was 0.25 %Dose and the “%AUC in AUC-pooled plasma” value ([1]; subject 01003) was 56.65 %AUC. The “%Dose in pooled feces” value ([1]; subject 01003) was 1.93 %Dose, the “%AUC in AUC-pooled plasma” value ([1]; subject 01004) was 59.14 %AUC and the “%Dose in pooled feces” value ([1]; subject 01004) was 1.52 %Dose. The “%AUC in AUC-pooled plasma” value ([1]; subject 01005) was 54.59 %AUC, the “%Dose in pooled feces” value ([1]; subject 01005) was 2.32 %Dose and the “%AUC in AUC-pooled plasma” value ([1]; subject 01006) was 15.32 %AUC. The “%Dose in pooled feces” value ([1]; subject 01006) was 0.48 %Dose, the “average plasma total radioactivity concentration at 96 h post dose” value ([2]; still detectable in 4 subjects) was 4.74 ng Eq./mL and the “AUC0-t of total radioactivity” value [2, 5] was 3,900 h ng Eq./mL. The “CL/F of total radioactivity” value [2, 5] was 7.25 L/h, the “Cmax of total radioactivity” value [2, 5] was 368 ng Eq./mL and the “subjects reporting TEAEs” value ([3]; 5 of 6 subjects, single oral 30 mg/100 µCi) was 83.3%. The “serious adverse events or deaths” value [3] was “No serious adverse events or drug-related deaths occured”, the “serious adverse events or deaths” value ([3]; listed as amdizalisib) was “No subjects reported serious adverse events or adverse events leading to death” and the “severity of TEAEs” value ([3]; all TEAEs, considered study drug related) was “grade 1”. The “subjects reporting diarrhea as TEAE” value ([3]; four subjects) was 66.7%, the “number of TEAEs reported” value ([3]; throughout the study, 6 subjects) was 11 and the “subjects reporting abnormal laboratory test results” value ([3]; two subjects, shortened ECG PR, elevated low-density lipoprotein, positive urine white blood cells) was 33.3%. The “AUC0-∞” value [4] was 1,574 h٠ng/mL and the Cmax [4] was 152 ng/mL.

Source: paper PMC11605291 (Frontiers in Pharmacology, 2024)
